Reference: publication PMC7402526, “An in vitro quantitative systems pharmacology approach for deconvolving mechanisms of drug-induced, multilineage cytopenias” (PLoS Computational Biology, 2020)

Assays:
[1] = tested on: hematopoietic stem cells (HSCs); assay: Multi-lineage toxicity assay (MLTA), HSCs: concentration-response and QSP model fit; assay type: cell-based, human
Method in brief: (§1)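 Freeze-thawed primary human bone marrow CD34+ cells were cultured 6 days in SFEM II with a cytokine cocktail, drug added on day 0. Subsets were counted by 17-parameter flow cytometry with TruCount beads and normalized to vehicle wells. An Emax QSP model (Emax 0–2, L1 regularization) was fitted to these counts.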

[2] = tested on: granulocyte-macrophage progenitor (GMPs); assay: MLTA, GMPs: concentration-response and QSP model fit; assay type: cell-based, human; details: Homo sapiens, 144 h, 6 days, normalized to vehicle control, read-out: GMPs normalized cell count
Method in brief: as §1

granulocytes (Gran-lin) = assay: MLTA, Gran: concentration-response and QSP model fit; assay type: cell-based, human
Method in brief: (§2)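 Drug was added at time 0 to thawed human bone marrow CD34+ cells in SFEM II plus a cytokine cocktail. After 6 days at 37°C, subsets were counted by surface-marker flow with TruCount beads. Vehicle-normalized, donor-pooled data then fed an Emax model separating anti-proliferative from cell-killing effects.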

monocytes (monocyte-lin) = assay: MLTA, Mono: concentration-response and QSP model fit; assay type: cell-based, human; details: Homo sapiens, Monocyte, 144 h
Method in brief: as §2

MK cells (MK-lin) = assay: MLTA, MK: concentration-response and QSP model fit; assay type: cell-based, human; details: Homo sapiens, 144 h
Method in brief: as §1

[3] = tested on: lymphocyte progenitors (LymP); assay: MLTA, LymP: concentration-response and QSP model fit; assay type: cell-based, human; details: Homo sapiens, Lymphocyte, 144 h
Method in brief: as §1

B cells (B-lin) = assay: MLTA, B-lin: concentration-response and QSP model fit; assay type: cell-based, human; details: Homo sapiens, B-cell, 144 h
Method in brief: as §1

[4] = tested on: total dead cells (totalDeadCells); assay: MLTA, total dead cells concentration-response; assay type: cell-based; details: Homo sapiens, 144 h, 6 days, normalized to vehicle control, read-out: total_dead normalized cell count
Method: A custom optimized cytokine cocktail was developed using commercially available cytokines (Peprotech, New Jersey) to facilitate simultaneous multi-lineage differentiation and self-renewal of freeze-thawed primary human bone marrow-derived CD34+ cells in SFEM II media (cells and media from StemCell Technologies, Vancouver). Cultures were carried out in ultra-low attachment 96-well plates (Corning, New York) with test article added on day 0 and cultured at 37°C, 85% relative humidity, and 5% CO2 for six days before interrogating drug impact via 17-parameter flow cytometry.
The flow cytometry panel used to define hematopoietic subsets was composed of CD34-PECy7, CD90-PECY5, CD38-AF488, CD371-PE, CD45Ra-BV421, CD14-BV605, CD42b-AF647, CD10-PEDazzle594, CD235a-PerCPCy5.5 (BioLegend, California), CD15-BUV395, CD41a-APCH7, CD71-BV786 (BD Biosciences, California), and DAPI for dead cell exclusion (ThermoFisher, California). In short, Day 6 cells were harvested, FcR-blocked (FcR binding inhibitor, ThermoFisher), surface-stained, then analyzed in a buffer containing TruCount Control Beads using a BD LSR Fortessa SORP fitted with a high-throughput sampler (BD Biosciences, California). Data was analyzed in Diva 6.0.2 and exported to CSV where after all cell data was transformed to cell per mL then normalized on a per-donor basis to untreated control wells to determine drug impact.
Donor material was collected and cultured as described above. The number of replicate donor samples per drug ranged from 2–7 and varied per drug (S1 Table). Drug treatment was added at time 0 and cells were maintained in culture for 6 days. Concentrations tested for each drug compound are contained in S1 Table. Concentrations were selected to span a range that is clinically useful. Following treatment, cell populations were measured using flow cytometry. We extracted cell counts from flow cytometry data, normalized to bead counts, and corrected for well volume.
Each well was normalized to the average of six vehicle control wells. For drugs that were tested across multiple runs of the assay, vehicle-normalized donor data were pooled, and we used the average of these pooled data for further modeling. Normalized data used as model inputs are included in S1 Table.

[5] = cell-killing component, max(0, EmaxT-1)
[6] = QSP model fit of 6-day MLTA data

EC50 (granulocytes (Gran-lin); Homo sapiens, 144 h, QSP model fit of 6-day MLTA data): 7.91 nM
EC50 (monocytes (monocyte-lin); [6]): 9.03 nM
EC50 (MK cells (MK-lin); [6]): 7.79 nM
EC50 (B cells (B-lin); [6]): 10.4 nM
SMILES: CC(=O)O[C@@]12CO[C@@H]1C[C@H](O)[C@@]1(C)C(=O)[C@H](O)C3=C(C)[C@@H](OC(=O)[C@H](O)[C@@H](NC(=O)OC(C)(C)C)c4ccccc4)C[C@@](O)([C@@H](OC(=O)c4ccccc4)[C@H]21)C3(C)C [docetaxel]
EC50 ([1]; Homo sapiens, Hematopoietic stem cell, 144 h, QSP model fit of 6-day MLTA data): 33.7 nM
activity at 0.0002 µM ([1]; Homo sapiens, Hematopoietic stem cell, 144 h, dose 0.2 nM, 6 days, normalized to vehicle control, read-out: HSCs normalized cell count): 97.9%
activity at 0.001 µM ([1]; Homo sapiens, Hematopoietic stem cell, 144 h, dose 1 nM, 6 days, normalized to vehicle control, read-out: HSCs normalized cell count): 104%
activity at 0.005 µM ([1]; Homo sapiens, Hematopoietic stem cell, 144 h, dose 5 nM, 6 days, normalized to vehicle control, read-out: HSCs normalized cell count): 64.6%
activity at 0.025 µM ([1]; Homo sapiens, Hematopoietic stem cell, 144 h, dose 25 nM, 6 days, normalized to vehicle control, read-out: HSCs normalized cell count): 4%
activity at 0.1 µM ([1]; Homo sapiens, Hematopoietic stem cell, 144 h, dose 100 nM, 6 days, normalized to vehicle control, read-out: HSCs normalized cell count): 0.534%
activity at 0.5 µM ([1]; Homo sapiens, Hematopoietic stem cell, 144 h, dose 500 nM, 6 days, normalized to vehicle control, read-out: HSCs normalized cell count): 2.32%
activity at 2.5 µM ([1]; Homo sapiens, Hematopoietic stem cell, 144 h, dose 2500 nM, 6 days, normalized to vehicle control, read-out: HSCs normalized cell count): 0.559%
Emax ([1]; Homo sapiens, Hematopoietic stem cell, 144 h, parameter from QSP model fitting, read-out: Emax_drug_HSC): 130%
EmaxCK,HSC [1, 5]: 0.3 day⁻¹
activity at 0.0002 µM ([2]; dose 0.2 nM): 103%
activity at 0.001 µM ([2]; dose 1 nM): 126%
activity at 0.005 µM ([2]; dose 5 nM): 15.2%
activity at 0.025 µM ([2]; dose 25 nM): 0.367%
activity at 0.1 µM ([2]; dose 100 nM): 0.162%
activity at 0.5 µM ([2]; dose 500 nM): 0.693%
activity at 2.5 µM ([2]; dose 2500 nM): 0.207%
activity at 0.0002 µM (granulocytes (Gran-lin); Homo sapiens, 144 h, dose 0.2 nM, 6 days, normalized to vehicle control, read-out: Gran normalized cell count): 99.7%
activity at 0.001 µM (granulocytes (Gran-lin); Homo sapiens, 144 h, dose 1 nM, 6 days, normalized to vehicle control, read-out: Gran normalized cell count): 112%
activity at 0.005 µM (granulocytes (Gran-lin); Homo sapiens, 144 h, dose 5 nM, 6 days, normalized to vehicle control, read-out: Gran normalized cell count): 2.09%
activity at 0.025 µM (granulocytes (Gran-lin); Homo sapiens, 144 h, dose 25 nM, 6 days, normalized to vehicle control, read-out: Gran normalized cell count): 0.0343%
activity at 0.1 µM (granulocytes (Gran-lin); Homo sapiens, 144 h, dose 100 nM, 6 days, normalized to vehicle control, read-out: Gran normalized cell count): 0.0437%
activity at 0.5 µM (granulocytes (Gran-lin); Homo sapiens, 144 h, dose 500 nM, 6 days, normalized to vehicle control, read-out: Gran normalized cell count): 0.0563%
activity at 2.5 µM (granulocytes (Gran-lin); Homo sapiens, 144 h, dose 2500 nM, 6 days, normalized to vehicle control, read-out: Gran normalized cell count): 0.0425%
Emax (granulocytes (Gran-lin); Homo sapiens, 144 h, parameter from QSP model fitting, read-out: Emax_drug_Gran): 276%
EmaxCK,Gran (granulocytes (Gran-lin); [5]): 1.762 day⁻¹
activity at 0.0002 µM (monocytes (monocyte-lin); dose 0.2 nM, 6 days, normalized to vehicle control, read-out: Mon normalized cell count): 103%
activity at 0.001 µM (monocytes (monocyte-lin); dose 1 nM, 6 days, normalized to vehicle control, read-out: Mon normalized cell count): 106%
activity at 0.005 µM (monocytes (monocyte-lin); dose 5 nM, 6 days, normalized to vehicle control, read-out: Mon normalized cell count): 2.6%
activity at 0.025 µM (monocytes (monocyte-lin); dose 25 nM, 6 days, normalized to vehicle control, read-out: Mon normalized cell count): 1.23%
activity at 0.1 µM (monocytes (monocyte-lin); dose 100 nM, 6 days, normalized to vehicle control, read-out: Mon normalized cell count): 1.06%
activity at 0.5 µM (monocytes (monocyte-lin); dose 500 nM, 6 days, normalized to vehicle control, read-out: Mon normalized cell count): 2.03%
activity at 2.5 µM (monocytes (monocyte-lin); dose 2500 nM, 6 days, normalized to vehicle control, read-out: Mon normalized cell count): 1.39%
Emax (monocytes (monocyte-lin); parameter from QSP model fitting, read-out: Emax_drug_Mono): 19.8%
activity at 0.0002 µM (MK cells (MK-lin); dose 0.2 nM, 6 days, normalized to vehicle control, read-out: MK normalized cell count): 94.7%
activity at 0.001 µM (MK cells (MK-lin); dose 1 nM, 6 days, normalized to vehicle control, read-out: MK normalized cell count): 109%
activity at 0.005 µM (MK cells (MK-lin); dose 5 nM, 6 days, normalized to vehicle control, read-out: MK normalized cell count): 14.4%
activity at 0.025 µM (MK cells (MK-lin); dose 25 nM, 6 days, normalized to vehicle control, read-out: MK normalized cell count): 1.1%
activity at 0.1 µM (MK cells (MK-lin); dose 100 nM, 6 days, normalized to vehicle control, read-out: MK normalized cell count): 0.719%
activity at 0.5 µM (MK cells (MK-lin); dose 500 nM, 6 days, normalized to vehicle control, read-out: MK normalized cell count): 0.951%
activity at 2.5 µM (MK cells (MK-lin); dose 2500 nM, 6 days, normalized to vehicle control, read-out: MK normalized cell count): 1.05%
Emax (MK cells (MK-lin); parameter from QSP model fitting, read-out: Emax_drug_MK): 12.6%
activity at 0.0002 µM ([3]; dose 0.2 nM, 6 days, normalized to vehicle control, read-out: LymP normalized cell count): 96.4%
activity at 0.001 µM ([3]; dose 1 nM, 6 days, normalized to vehicle control, read-out: LymP normalized cell count): 131%
activity at 0.005 µM ([3]; dose 5 nM, 6 days, normalized to vehicle control, read-out: LymP normalized cell count): 24.3%
activity at 0.025 µM ([3]; dose 25 nM, 6 days, normalized to vehicle control, read-out: LymP normalized cell count): 6.02%
activity at 0.1 µM ([3]; dose 100 nM, 6 days, normalized to vehicle control, read-out: LymP normalized cell count): 2.7%
activity at 0.5 µM ([3]; dose 500 nM, 6 days, normalized to vehicle control, read-out: LymP normalized cell count): 7.71%
activity at 2.5 µM ([3]; dose 2500 nM, 6 days, normalized to vehicle control, read-out: LymP normalized cell count): 6.19%
Emax ([3]; parameter from QSP model fitting, read-out: Emax_drug_LymP): 0.16%
activity at 0.0002 µM (B cells (B-lin); dose 0.2 nM, 6 days, normalized to vehicle control, read-out: B-lin normalized cell count): 89%
activity at 0.001 µM (B cells (B-lin); dose 1 nM, 6 days, normalized to vehicle control, read-out: B-lin normalized cell count): 94.8%
activity at 0.005 µM (B cells (B-lin); dose 5 nM, 6 days, normalized to vehicle control, read-out: B-lin normalized cell count): 3.47%
activity at 0.025 µM (B cells (B-lin); dose 25 nM, 6 days, normalized to vehicle control, read-out: B-lin normalized cell count): 0.169%
activity at 0.1 µM (B cells (B-lin); dose 100 nM, 6 days, normalized to vehicle control, read-out: B-lin normalized cell count): 1.5%
activity at 0.5 µM (B cells (B-lin); dose 500 nM, 6 days, normalized to vehicle control, read-out: B-lin normalized cell count): 1.33%
activity at 2.5 µM (B cells (B-lin); dose 2500 nM, 6 days, normalized to vehicle control, read-out: B-lin normalized cell count): 0.24%
Emax (B cells (B-lin); parameter from QSP model fitting, read-out: Emax_drug_B): 102%
activity at 0.0002 µM ([4]; dose 0.2 nM): 104%
activity at 0.001 µM ([4]; dose 1 nM): 107%
activity at 0.005 µM ([4]; dose 5 nM): 113%
activity at 0.025 µM ([4]; dose 25 nM): 45.7%
activity at 0.1 µM ([4]; dose 100 nM): 46.1%
activity at 0.5 µM ([4]; dose 500 nM): 41.6%
activity at 2.5 µM ([4]; dose 2500 nM): 48.4%
